Values after ≈ are worked out from the molar mass of the structure shown.
Molecular target: T1, Potassium channel subfamily K member 13 (Homo sapiens, UniProt Q9HB14)
T1 sequence (Q9HB14 whole entry): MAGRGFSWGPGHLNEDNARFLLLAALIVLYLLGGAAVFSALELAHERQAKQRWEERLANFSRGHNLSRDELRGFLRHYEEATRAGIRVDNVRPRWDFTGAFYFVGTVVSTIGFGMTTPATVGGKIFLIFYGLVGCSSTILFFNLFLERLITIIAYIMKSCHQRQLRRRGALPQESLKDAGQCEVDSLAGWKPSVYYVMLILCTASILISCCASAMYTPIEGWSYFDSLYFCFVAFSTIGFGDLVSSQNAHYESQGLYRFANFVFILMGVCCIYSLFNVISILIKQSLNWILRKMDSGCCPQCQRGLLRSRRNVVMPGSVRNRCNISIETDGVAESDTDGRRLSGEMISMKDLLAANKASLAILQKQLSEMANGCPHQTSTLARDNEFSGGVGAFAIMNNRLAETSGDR
Experiment: Inhibition of human KCNK13 transfected in HEK293 cells
Type: cell-based
Settings: not given

| SMILES | IC50 [nM] |
| --- | --- |
| Nc1nonc1-c1nc2cccc(F)c2n1Cc1cnccn1 | 47 |
| c1ccc2c(c1)nc(-c1ccn[nH]1)n2Cc1ccncc1 | 9200 |
| Nc1nonc1-c1nc2cccc(F)c2n1Cc1ccc(C(F)(F)F)nn1 | 84 |
| N#Cc1ccc(Cn2c(-c3nonc3N)nc3cccc(F)c32)nn1 | 50 |
| c1ccc2c(c1)nc(-c1ncc[nH]1)n2Cc1ccncc1 | 3430 |
| Nc1nonc1-c1nc2c(F)ccc(F)c2n1Cc1cccnn1 | 37 |
| Nc1nonc1-c1nc2ccc(F)c(F)c2n1Cc1cccnn1 | 50 |
| Nc1ncccc1-c1nc2ccccc2n1Cc1ccncc1 | > 22000 |
| c1ccc2c(c1)nc(-c1cocn1)n2Cc1ccncc1 | 2940 |
| Nc1nonc1-c1nc2cccc(F)c2n1Cc1cncnc1 | 49 |
| Nc1nonc1-c1nc2cccc(F)c2n1Cc1ccncn1 | 46 |

Results, then the compound that gave them:

| IC50 [nM] | SMILES |
| --- | --- |
| 55 | Nc1nonc1-c1nc2c(F)cccc2n1Cc1ccncc1 |
| 46 | Nc1nonc1-c1nc2cccc(F)c2n1Cc1ccncc1 |
| 34 | Nc1nonc1-c1nc2ccc(F)cc2n1Cc1ccncc1 |
| 89 | Cc1nonc1-c1nc2ccccc2n1Cc1ccncc1 |
| 42 | Nc1nonc1-c1nc2cc(F)ccc2n1Cc1ccncc1 |
| > 22000 | CC(=O)Nc1nonc1-c1nc2ccccc2n1Cc1ccncc1 |
| 50 | Nc1nonc1-c1nc2cccc(F)c2n1Cc1ccnnc1 |

Molecular target: T2, Potassium channel subfamily K member 13 (Mus musculus, UniProt Q8R1P5)
T2 sequence (Q8R1P5 whole entry): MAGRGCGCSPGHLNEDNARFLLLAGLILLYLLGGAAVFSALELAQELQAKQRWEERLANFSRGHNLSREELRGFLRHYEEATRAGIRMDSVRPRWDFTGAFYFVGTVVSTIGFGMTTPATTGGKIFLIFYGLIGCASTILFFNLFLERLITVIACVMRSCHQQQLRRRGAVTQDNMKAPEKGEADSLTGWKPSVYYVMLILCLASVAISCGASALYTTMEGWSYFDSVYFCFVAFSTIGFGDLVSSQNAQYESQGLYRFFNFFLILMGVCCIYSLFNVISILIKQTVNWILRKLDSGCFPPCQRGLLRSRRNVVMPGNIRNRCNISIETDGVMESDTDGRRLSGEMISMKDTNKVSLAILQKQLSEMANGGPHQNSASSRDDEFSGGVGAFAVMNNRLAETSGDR
Experiment: Inhibition of mouse KCNK13 transfected in HEK293 cells
Type: cell-based
Settings: not given

| SMILES | IC50 [nM] |
| --- | --- |
| Nc1nonc1-c1nc2cccc(F)c2n1Cc1cnccn1 | 62 |
| Nc1nonc1-c1nc2cccc(F)c2n1Cc1ccc(C(F)(F)F)nn1 | 74 |
| N#Cc1ccc(Cn2c(-c3nonc3N)nc3cccc(F)c32)nn1 | 35 |
| Nc1nonc1-c1nc2c(F)ccc(F)c2n1Cc1cccnn1 | 42 |
| Nc1nonc1-c1nc2cccc(F)c2n1Cc1cncnc1 | 26 |

System: not listed separately
Experiment: Metabolic stability in human liver microsomes assessed as intrinsic clearance
Type: ADME, Microsome
Settings: read-out: CLH

| SMILES | microsomal CLint [µL/min/mg] |
| --- | --- |
| Nc1nonc1-c1nc2cccc(F)c2n1Cc1cnccn1 | 21 |
| Nc1nonc1-c1nc2cccc(F)c2n1Cc1ccc(C(F)(F)F)nn1 | 18.3 |
| N#Cc1ccc(Cn2c(-c3nonc3N)nc3cccc(F)c32)nn1 | 9.6 |
| Nc1nonc1-c1nc2c(F)ccc(F)c2n1Cc1cccnn1 | 9.6 |
| Nc1nonc1-c1nc2ccc(F)c(F)c2n1Cc1cccnn1 | < 9.6 |
| Nc1nonc1-c1nc2cccc(F)c2n1Cc1cncnc1 | 10 |
| Nc1nonc1-c1nc2cccc(F)c2n1Cc1ccncn1 | 10 |

Results, then the compound that gave them:

| microsomal CLint [µL/min/mg] | SMILES |
| --- | --- |
| 25 | Nc1nonc1-c1nc2c(F)cccc2n1Cc1ccncc1 |
| 14 | Nc1nonc1-c1nc2cccc(F)c2n1Cc1ccncc1 |
| 24 | Nc1nonc1-c1nc2ccccc2n1Cc1ccncc1 |
| 37 | Nc1nonc1-c1nc2ccc(F)cc2n1Cc1ccncc1 |
| 45 | Cc1nonc1-c1nc2ccccc2n1Cc1ccncc1 |
| 19 | Nc1nonc1-c1nc2cc(F)ccc2n1Cc1ccncc1 |
| 34 | CC(=O)Nc1nonc1-c1nc2ccccc2n1Cc1ccncc1 |
| 9.6 | Nc1nonc1-c1nc2cccc(F)c2n1Cc1ccnnc1 |

System: not listed separately
Experiment: Metabolic stability in rat liver microsomes assessed as intrinsic clearance
Type: ADME, Microsome
Settings: read-out: CLH

| SMILES | microsomal CLint [µL/min/mg] |
| --- | --- |
| Nc1nonc1-c1nc2cccc(F)c2n1Cc1cnccn1 | 68 |
| N#Cc1ccc(Cn2c(-c3nonc3N)nc3cccc(F)c32)nn1 | 40 |
| Nc1nonc1-c1nc2c(F)ccc(F)c2n1Cc1cccnn1 | 12.6 |
| Nc1nonc1-c1nc2ccc(F)c(F)c2n1Cc1cccnn1 | 15.4 |
| Nc1nonc1-c1nc2cccc(F)c2n1Cc1cncnc1 | 24 |
| Nc1nonc1-c1nc2cccc(F)c2n1Cc1ccncn1 | 77 |

Results, then the compound that gave them:

| microsomal CLint [µL/min/mg] | SMILES |
| --- | --- |
| 27 | Nc1nonc1-c1nc2c(F)cccc2n1Cc1ccncc1 |
| 22 | Nc1nonc1-c1nc2cccc(F)c2n1Cc1ccncc1 |
| 56 | Nc1nonc1-c1nc2ccccc2n1Cc1ccncc1 |
| 10 | Nc1nonc1-c1nc2ccc(F)cc2n1Cc1ccncc1 |
| 47 | Cc1nonc1-c1nc2ccccc2n1Cc1ccncc1 |
| 14 | Nc1nonc1-c1nc2cc(F)ccc2n1Cc1ccncc1 |
| 45 | CC(=O)Nc1nonc1-c1nc2ccccc2n1Cc1ccncc1 |
| 31.6 | Nc1nonc1-c1nc2cccc(F)c2n1Cc1ccnnc1 |

System: not listed separately
Experiment: Metabolic stability in mouse liver microsomes assessed as intrinsic clearance
Type: ADME, Microsome
Settings: read-out: CLH

| SMILES | microsomal CLint [µL/min/mg] |
| --- | --- |
| Nc1nonc1-c1nc2cccc(F)c2n1Cc1cnccn1 | 50 |
| Nc1nonc1-c1nc2cccc(F)c2n1Cc1ccc(C(F)(F)F)nn1 | 245 |
| N#Cc1ccc(Cn2c(-c3nonc3N)nc3cccc(F)c32)nn1 | 37 |
| Nc1nonc1-c1nc2c(F)ccc(F)c2n1Cc1cccnn1 | 10.1 |
| Nc1nonc1-c1nc2ccc(F)c(F)c2n1Cc1cccnn1 | < 9.6 |
| Nc1nonc1-c1nc2cccc(F)c2n1Cc1cncnc1 | 18 |
| Nc1nonc1-c1nc2cccc(F)c2n1Cc1ccncn1 | 30 |

Continued, values first:

| microsomal CLint [µL/min/mg] | SMILES |
| --- | --- |
| 74 | Nc1nonc1-c1nc2c(F)cccc2n1Cc1ccncc1 |
| 66 | Nc1nonc1-c1nc2cccc(F)c2n1Cc1ccncc1 |
| 58 | Nc1nonc1-c1nc2ccc(F)cc2n1Cc1ccncc1 |
| 28 | Nc1nonc1-c1nc2cc(F)ccc2n1Cc1ccncc1 |
| 13.9 | Nc1nonc1-c1nc2cccc(F)c2n1Cc1ccnnc1 |

System: not listed separately
Experiment: Protein binding in mouse plasma assessed as unbound fraction by equilibrium dialysis
Type: ADME, cell-free
Settings: not given

| SMILES | fraction unbound |
| --- | --- |
| Nc1nonc1-c1nc2cccc(F)c2n1Cc1cnccn1 | 0.138 |
| Nc1nonc1-c1nc2cccc(F)c2n1Cc1ccc(C(F)(F)F)nn1 | 0.035 |
| N#Cc1ccc(Cn2c(-c3nonc3N)nc3cccc(F)c32)nn1 | 0.071 |
| Nc1nonc1-c1nc2c(F)ccc(F)c2n1Cc1cccnn1 | 0.159 |
| Nc1nonc1-c1nc2ccc(F)c(F)c2n1Cc1cccnn1 | 0.161 |
| Nc1nonc1-c1nc2cccc(F)c2n1Cc1cncnc1 | 0.129 |
| Nc1nonc1-c1nc2cccc(F)c2n1Cc1ccncn1 | 0.111 |
| Nc1nonc1-c1nc2cccc(F)c2n1Cc1ccnnc1 | 0.188 |

System: not listed separately
Experiment: Protein binding in mouse brain assessed as unbound fraction by equilibrium dialysis
Type: ADME, tissue-based
Settings: not given

| SMILES | fraction unbound |
| --- | --- |
| Nc1nonc1-c1nc2cccc(F)c2n1Cc1cnccn1 | 0.077 |
| Nc1nonc1-c1nc2cccc(F)c2n1Cc1ccc(C(F)(F)F)nn1 | 0.024 |
| N#Cc1ccc(Cn2c(-c3nonc3N)nc3cccc(F)c32)nn1 | 0.064 |
| Nc1nonc1-c1nc2c(F)ccc(F)c2n1Cc1cccnn1 | 0.13 |
| Nc1nonc1-c1nc2ccc(F)c(F)c2n1Cc1cccnn1 | 0.097 |
| Nc1nonc1-c1nc2cccc(F)c2n1Cc1cncnc1 | 0.057 |
| Nc1nonc1-c1nc2cccc(F)c2n1Cc1ccncn1 | 0.091 |
| Nc1nonc1-c1nc2cccc(F)c2n1Cc1ccnnc1 | 0.128 |

System: not listed separately
Experiment: Kinetic aqueous solubility of compound at pH 7.4
Type: physicochemical
Settings: buffer, read-out: Kinetic_solubility

| SMILES | solubility kinetic [µM] |
| --- | --- |
| Nc1nonc1-c1nc2cccc(F)c2n1Cc1cnccn1 | 10 (≈ 3.11 µg/mL) |
| Nc1nonc1-c1nc2cccc(F)c2n1Cc1ccc(C(F)(F)F)nn1 | 1.6 (≈ 0.607 µg/mL) |
| N#Cc1ccc(Cn2c(-c3nonc3N)nc3cccc(F)c32)nn1 | 8.4 (≈ 2.82 µg/mL) |
| Nc1nonc1-c1nc2c(F)ccc(F)c2n1Cc1cccnn1 | 12.9 (≈ 4.25 µg/mL) |
| Nc1nonc1-c1nc2ccc(F)c(F)c2n1Cc1cccnn1 | 3.9 (≈ 1.28 µg/mL) |
| Nc1nonc1-c1nc2cccc(F)c2n1Cc1cncnc1 | 6.5 (≈ 2.02 µg/mL) |
| Nc1nonc1-c1nc2cccc(F)c2n1Cc1ccncn1 | 9.9 (≈ 3.08 µg/mL) |

Second part, the compound after the results:

| solubility kinetic [µM] | SMILES |
| --- | --- |
| < 0.3 | Nc1nonc1-c1nc2c(F)cccc2n1Cc1ccncc1 |
| 3.7 (≈ 1.15 µg/mL) | Nc1nonc1-c1nc2cccc(F)c2n1Cc1ccncc1 |
| < 0.3 | Nc1nonc1-c1nc2ccc(F)cc2n1Cc1ccncc1 |
| < 0.3 | Nc1nonc1-c1nc2cc(F)ccc2n1Cc1ccncc1 |
| 10.4 (≈ 3.24 µg/mL) | Nc1nonc1-c1nc2cccc(F)c2n1Cc1ccnnc1 |

System: not listed separately
Experiment: Unbound drug concentration in C57BL/6 mouse plasma at 10 mg/kg, po measured after 4 hrs by LC-MS/MS analysis
Type: ADME, organism-based
Settings: in vivo

| SMILES | Cp(f) [nM] |
| --- | --- |
| Nc1nonc1-c1nc2cccc(F)c2n1Cc1cnccn1 | 9 |
| Nc1nonc1-c1nc2c(F)ccc(F)c2n1Cc1cccnn1 | 793 |
| Nc1nonc1-c1nc2ccc(F)c(F)c2n1Cc1cccnn1 | 80 |
| Nc1nonc1-c1nc2cccc(F)c2n1Cc1ccnnc1 | 9 |

System: not listed separately
Experiment: Unbound drug concentration in C57BL/6 mouse brain at 10 mg/kg, po measured after 4 hrs by LC-MS/MS analysis
Type: ADME, organism-based
Settings: in vivo

| SMILES | Cp(f) [nM] |
| --- | --- |
| Nc1nonc1-c1nc2cccc(F)c2n1Cc1cnccn1 | 18 |
| Nc1nonc1-c1nc2c(F)ccc(F)c2n1Cc1cccnn1 | 630 |
| Nc1nonc1-c1nc2ccc(F)c(F)c2n1Cc1cccnn1 | 56 |
| Nc1nonc1-c1nc2cccc(F)c2n1Cc1ccnnc1 | 18 |

System: not listed separately
Experiment: Ratio of drug concentration in brain to plasma C57BL/6 mouse at 10 mg/kg, po measured after 4 hrs by LC-MS/MS analysis
Type: ADME, organism-based
Settings: brain and plasma, read-out: BPR

| SMILES | Kp at 4 h |
| --- | --- |
| Nc1nonc1-c1nc2cccc(F)c2n1Cc1cnccn1 | 0.56 |
| Nc1nonc1-c1nc2c(F)ccc(F)c2n1Cc1cccnn1 | 0.96 |
| Nc1nonc1-c1nc2ccc(F)c(F)c2n1Cc1cccnn1 | 1.17 |
| Nc1nonc1-c1nc2cccc(F)c2n1Cc1ccnnc1 | 0.68 |

System: not listed separately
Experiment: Ratio of unbound drug concentration in brain to plasma C57BL/6 mouse at 10 mg/kg, po measured after 4 hrs by LC-MS/MS analysis
Type: ADME, organism-based
Settings: brain and plasma, read-out: K(p,uu,brain)

| SMILES | Kp uu at 4 h |
| --- | --- |
| Nc1nonc1-c1nc2cccc(F)c2n1Cc1cnccn1 | 2.2 |
| Nc1nonc1-c1nc2c(F)ccc(F)c2n1Cc1cccnn1 | 0.8 |
| Nc1nonc1-c1nc2ccc(F)c(F)c2n1Cc1cccnn1 | 0.7 |
| Nc1nonc1-c1nc2cccc(F)c2n1Cc1ccnnc1 | 1.9 |

Reference: ChEMBL document CHEMBL5634193, “Discovery of CVN293, a Brain Permeable KCNK13 (THIK-1) Inhibitor Suitable for Clinical Assessment” (ACS Med Chem Lett, 2024)
